In the supplement of paper PMC10307832:

Assays:
Experiment in all cases: relative viability (nuclei count vs DMSO), 5 days (fraction); higher = more cells survive
[1] = compound: C=CCn1c(=O)c2cnc(Nc3ccc(N4CCN(C)CC4)cc3)nc2n1-c1cccc(C(C)(C)O)n1 [Adavosertib] + COc1cccc2cc(-c3nc([C@H]4CC[C@H](C(=O)O)CC4)n4ncnc(N)c34)[nH]c12 [OSI-027] (partner 0.5 µM)
Summary of the method: (§1)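 Lung cancer cell lines in 1536-well plates got either a single drug or a fixed anchor-drug dose together with five library-drug doses (not always all listed) in √10 steps, by pin tool, on the day after seeding. Nuclei were counted after 5 days, and relative viability is the treated-to-vehicle ratio of nuclei counts. Values are medians of duplicate plates.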

[2] = compound: C=CCn1c(=O)c2cnc(Nc3ccc(N4CCN(C)CC4)cc3)nc2n1-c1cccc(C(C)(C)O)n1 [Adavosertib] + C[C@]1(O)C[C@@H](c2nc(-c3ccc4ccc(-c5ccccc5)nc4c3)c3c(N)nccn32)C1 [Linsitinib] (partner 1 µM)
Summary of the method: as §1

[3] = compound: C=CCn1c(=O)c2cnc(Nc3ccc(N4CCN(C)CC4)cc3)nc2n1-c1cccc(C(C)(C)O)n1 [Adavosertib] + N=C(N)NC(=N)NCCc1ccccc1 [Phenformin] (partner 250 µM)
Summary of the method: as §1

[4] = compound: COc1nc(N)nc2c1ncn2[C@@H]1O[C@H](CO)[C@@H](O)[C@@H]1O [Nelarabine] + CCNC(=O)c1noc(-c2cc(C(C)C)c(O)cc2O)c1-c1ccc(CN2CCOCC2)cc1 [Luminespib] (partner 0.01 µM)
Summary of the method: as §1

| Cell Line | relative viability ([1]; first compound 0.01 µM) | relative viability ([1]; first compound 0.03162 µM) | relative viability ([1]; first compound 0.1 µM) | relative viability ([1]; first compound 0.3162 µM) | relative viability ([2]; first compound 0.01 µM) | relative viability ([2]; first compound 0.03162 µM) | relative viability ([2]; first compound 0.1 µM) | relative viability ([2]; first compound 0.3162 µM) | relative viability ([3]; first compound 0.01 µM) | relative viability ([3]; first compound 0.03162 µM) | relative viability ([3]; first compound 0.1 µM) | relative viability ([3]; first compound 0.3162 µM) | relative viability ([4]; first compound 0.01 µM) | relative viability ([4]; first compound 0.03162 µM) | relative viability ([4]; first compound 0.1 µM) | relative viability ([4]; first compound 0.3162 µM) | relative viability ([4]; first compound 1 µM) |
| --- | --- | --- | --- | --- | --- | --- | --- | --- | --- | --- | --- | --- | --- | --- | --- | --- | --- |
| HCC-15 | 0.669 | 0.786 | 0.756 | 0.802 | 0.878 | 0.876 | 1.05 | 0.989 | 0.474 | 0.471 | 0.494 | 0.504 | 0.304 | 0.158 | 0.349 | 0.295 | 0.409 |
| EKVX | 0.729 | 0.77 | 0.679 | 0.651 | 0.941 | 0.966 | 0.989 | 1.07 | 0.249 | 0.238 | 0.227 | 0.234 | 0.946 | 0.771 | 0.809 | 0.796 | 0.915 |
| NCI-H2347 | 0.515 | 0.414 | 0.473 | 0.298 | 0.944 | 0.93 | 1.09 | 0.914 | 0.306 | 0.496 | 0.5 | 0.411 | 0.463 | 0.743 | 0.621 | 0.48 | 0.478 |
| NCI-H1944 | 0.378 | 0.429 | 0.394 | 0.402 | 1.17 | 1.13 | 1.23 | 1 | 0.23 | 0.202 | 0.19 | 0.206 | 0.925 | 0.775 | 0.793 | 0.73 | 0.745 |
| NCI-H1395 | 0.69 | 0.727 | 0.656 | 0.492 | 1.17 | 1.18 | 1.2 | 0.955 | 0.435 | 0.429 | 0.421 | 0.471 | 0.666 | 0.691 | 0.773 | 0.707 | 0.987 |
| SK-MES-1 | 0.681 | 0.576 | 0.428 | 0.198 | 1.03 | 1.02 | 1.1 | 0.835 | 0.66 | 0.704 | 0.635 | 0.208 | 0.954 | 0.622 | 0.748 | 0.847 | 0.797 |
| NCI-H1792 | – | 0.701 | 1.12 | 0.751 | 0.601 | 0.519 | 0.493 | 0.559 | 0.27 | 0.217 | – | 0.259 | 0.406 | 0.537 | 0.451 | 0.425 | 0.55 |
| NCI-H596 | 0.784 | 0.914 | 0.752 | 0.732 | 1.04 | 1.01 | 1.01 | 1.11 | 0.662 | 0.909 | 0.754 | 1 | 1.04 | 0.996 | 1.08 | 1.12 | 0.988 |
| NCI-H3122 | 0.972 | 0.914 | 1.07 | 1.06 | 1.08 | 0.954 | 1.06 | 1.06 | 0.365 | 0.402 | 0.355 | 0.365 | 0.0966 | 0.11 | – | 0.12 | 0.115 |
| LXF-289 | 0.809 | 0.678 | 0.721 | 0.938 | 0.936 | 0.97 | 0.944 | 1.02 | 0.528 | 0.553 | 0.527 | 0.561 | 0.792 | 0.655 | 0.659 | 0.832 | 0.578 |
